The nature of assay [1]: Inhibition of platelet aggregation in human platelet rich plasma (hPRP).
Experiment in assay [2]: as above
This is another data set of the same source.

This note sets out measurements from BindingDB's records for doi:10.1016/s0960-894x(00)00023-8 (Dupont Pharmaceuticals, 2000).

Counter-ions that a name gives are not always drawn.

As to `N=C(N)c1ccc(C2=NOC(CC(=O)NCCC(=O)O)C2)cc1` (configuration not stated), in assay [1], the IC50 – broadly, the midpoint of a concentration-inhibition curve – turned out to be 60 nM.

The compound `N=C(N)c1ccc(C2=NOC(CC(=O)N3CCC(=O)C(C(=O)O)C3)C2)cc1` (configuration not stated) [1-{2-[3-(4-Carbamimidoyl-phenyl)-4,5-dihydro-isoxazol-5-yl]-acetyl}-4-oxo-piperidine-3-carboxylic acid; TFA] gave an IC50 in assay [2] of 6400 nM.

As to `N=C(N)c1ccc(C2=NOC(CC(=O)N3CCCC(C(=O)O)C3)C2)cc1` (configuration not stated) [1-{2-[3-(4-Carbamimidoyl-phenyl)-4,5-dihydro-isoxazol-5-yl]-acetyl}-piperidine-3-carboxylic acid; TFA], inhibition in assay [2] was half-maximal at 5200 nM (IC50).

Regarding `N=C(N)c1ccc(C2=NOC(CC(=O)N3CCC(C(=O)O)CC3)C2)cc1` (configuration not stated) [1-{2-[3-(4-Carbamimidoyl-phenyl)-4,5-dihydro-isoxazol-5-yl]-acetyl}-piperidine-4-carboxylic acid; TFA], the midpoint of inhibition in assay [2], the IC50, lay at 2500 nM.

In assay [2], `N=C(N)c1ccc(C2=NOC(CC(=O)N3CCCCCC3CC(=O)O)C2)cc1` (configuration not stated) [(1-{2-[3-(4-Carbamimidoyl-phenyl)-4,5-dihydro-isoxazol-5-yl]-acetyl}-azepan-2-yl)-acetic acid; TFA] gave an IC50 of 3700 nM.

In turn, `N=C(N)c1ccc(C2=NOC(CC(=O)N3CCCCC3CC(=O)O)C2)cc1` (configuration not stated) [(1-{2-[3-(4-Carbamimidoyl-phenyl)-4,5-dihydro-isoxazol-5-yl]-acetyl}-piperidin-2-yl)-acetic acid; TFA] yielded an IC50 in assay [2] of 280 nM. This IC50 lies about 13-fold lower than the previous one.

`N=C(N)c1ccc(C2=NOC(CC(=O)N3CCCC3CC(=O)O)C2)cc1` (configuration not stated) [(1-{2-[3-(4-Carbamimidoyl-phenyl)-4,5-dihydro-isoxazol-5-yl]-acetyl}-pyrrolidin-2-yl)-acetic acid; TFA] had an IC50 in assay [2] of 1100 nM.
